Source: US8394776B2, “Use of ursolic acid saponin,oleanolic acid saponin in preparation of increasing leucocytes and/or platelet medicine” (Chengdu Di'Ao Jiuhong Pharmaceutical Factor, priority 2007, dated 2013)

Assays:
[1] = system: bone marrow mononuclear cell (BMMNC); test: Monocytic proliferation in bone marrow of mice cultured in vitro (SRB method); type: cell-based, KunMing mice; conditions: 1 μg/ml; cultured 5 days; versus blank control
Description: 15-20 KunMing mice (purchased from Laboratory Animal Center of Zhengzhou University, Henan) of either sex were killed by cervical vertebral dislocation. Bilateral thighbones were isolated and caput femoris was cut off. The marrow was washed repeatedly with serum-free RPMI1640 (Gibco Corp.), the wash solution containing marrow cells was collected, sucked and blew repeatedly with a pipette to make the cells disperse. After standing for a moment, the supernatant was sucked up and centrifugated at 100 g for 3 min to collect the cell pellet. The cells were resuspended in a culture media and brought to a volume of 5 ml. The cell suspension was added to the upper layer of a centrifugal tube containing 5 ml of a lymphocyte separation medium of mice and centrifugated at 400 g for 30 min. The milk-white bone marrow mononuclear cell (BMMNC) layer in the middle of the interface was collected and washed with serum-free medium RPMI1640 for three times to obtain a BMMNC suspension, which was inoculated into a 96-well plate at forty thousand per well after counting. Positive drugs rhG-CSF (recombinant granulocyte colony-stimulating factor, manufactured by QI LU Pharmaceutical Co., LTD., Shandong) or test samples of different concentrations were added, and meanwhile a blank control group without drug was established. They were cultured in a 5% CO2 incubator at 37 for 5 days. Cell proliferation was measured by a conventional SRB (Sigma) method in which OD at 490 nm was measured after being dyed with SRB. The growth rates of cell proliferation after drug treatment were calculated (Growth rate of cell proliferation=experimental group-blank control group/blank control group*100%).

[2] = system: leukocytes (WBC); test: Cyclophosphamide-induced leukopenia in mice: leukocytes (WBC); type: in vivo, Kunming mice; conditions: Experimental Example 3; 0.8 mg/kg
Description: (§1) Further, in vivo experiments were carried out on the compounds involved in the present invention using animal models of cyclophosphamide-induced leukopenia in mice. Experimental methods are briefed as follows: Healthy Kunming mice, of which half were male and the other half were female, were divided into groups, each group incuding 18 mice, and those mice weighing 18-22 g were selected and divided into groups randomly according to their body weights. Each group was given a different drug, wherein the negative control group and model control group were given physiological saline of the same volume, and the positive control group was treated with granulocyte colony-stimulating factors 40 μg/kg through subcutaneous injection (injection volume: 0.1 ml/10 g). After administration for 3 days, except the negative control group, other treatment groups were treated with 100 mg/kg cyclophosphamide (CY) through lumbar injection once a day for three days to cause a decrease of leukocytes in mice. A drop of blood (20 μl) was taken from posterior orbital venous plexus to detect the hemogram to observe the situation of leukocytes and platelets on day 1, day 3 and/or day 5 after the final lumbar injection of cyclophosphamide (i.e day 1, day 3 and/or day 5 after modeling) (Note: Each treatment group was administrated incessantly). The mice were killed on day 5 after the final lumbar injection of cyclophosphamide (i.e day 5 after modeling), and the leukocytes (WBC) and platelets (PLT) of the hemogram index were counted.
This experiment mainly studies the effect of G-1, G-6 and G-8 of ursolic acid saponin in increasing leukocytes, and compares the therapeutic effects of aglycon of ursolic acid and oleanolic acid and of the compound G-22 which has been disclosed by a patent.
(§2) The purpose of this experiment is to study the effect of G-1, G-3, G-11 and G-12 of ursolic acid saponin and oleanolic acid saponin in increasing platelets, and to observe whether G-11 and G-12 of oleanolic acid saponin have an effect in increasing leukocytes.

[3] = system: platelets (PLT); test: Cyclophosphamide-induced leukopenia in mice: platelets (PLT); type: in vivo, Kunming mice; conditions: Experimental Example 3, 0.8 mg/kg; for difference in increasing platelets compared with G-22 (in words): day 5 after modeling
Description: as §1, §2

| Molecule | Growth Rate of Proliferation %, 1 μg/ml [1] [%] | other results |
| --- | --- | --- |
| CC1CCC2(C(=O)O)CCC3(C)C(=CCC4C5(C)CCC(OC6OC(CO)C(O)C(O)C6O)C(C)(C)C5CCC43C)C2C1C [Sample G-7, 3-O-(β-D-glucopyranosyl) ursolic acid] | 23.7 |  |
| CC1CCC2(C(=O)O)CCC3(C)C(=CCC4C5(C)CCC(OC6OC(CO)C(O)C(O)C6O)C(C)(C)C5CCC43C)C2C1C [Sample G-10, 3-O-(β-D-galactopyranosyl) ursolic acid] | 24.2 |  |
| CC1(C)CC[C@]2(C(=O)O)CC[C@]3(C)C(=CC[C@@H]4[C@@]5(C)CC[C@H](O[C@@H]6OC[C@@H](O)[C@@H](O)[C@@H]6O)C(C)(C)[C@@H]5CC[C@]43C)[C@@H]2C1 [Sample G-16, 3-O-(α-L-arabopyranosyl) oleanolic acid] | 21.6 |  |
| CC1CCC2(C(=O)OC3OC(C)C(O)C(O)C3O)CCC3(C)C(=CCC4C5(C)CCC(OC6OC(C)C(O)C(O)C6O)C(C)(C)C5CCC43C)C2C1C [Sample G-2, 3-O-(α-L-rhamnopyranosyl) ursolic acid-28-O-(α-L-rhamnopyranosyl) ester] | 19.9 |  |
| CC1(C)CCC2(C(=O)O)CCC3(C)C(=CCC4C5(C)CCC(OC6OC(CO)C(O)C(O)C6O)C(C)(C)C5CCC43C)C2C1 [Sample G-14, 3-O-(β-D-galactopyranosyl) oleanolic acid] | 19.9 |  |
| CC1CCC2(C(=O)OC3OC(CO)C(OC4OC(CO)C(O)C(O)C4O)C(O)C3O)CCC3(C)C(=CCC4C5(C)CCC(OC6OCC(O)C(O)C6O)C(C)(C)C5CCC43C)C2C1C [Sample G-4, 3-O-(α-L-arabopyranosyl) ursolic acid-28-O-(β-cellobiosyl) ester] | 18.0 |  |
| CC1(C)CC[C@]2(C(=O)O[C@@H]3O[C@H](CO)[C@@H](O)[C@H](O)[C@H]3O)CC[C@]3(C)C(=CC[C@@H]4[C@@]5(C)CC[C@H](O[C@@H]6O[C@H](CO)[C@@H](O)[C@H](O)[C@H]6O)C(C)(C)[C@@H]5CC[C@]43C)[C@@H]2C1 [Sample G-12, 3-O-(β-D-glucopyranosyl) oleanolic acid-28-O-(β-D-glucopyranosyl) ester] | 25.4 | effect in increasing leukocytes (in words) [2]: obvious effect in increasing leukocytes at day 1 after modeling; leukocytes, Day 1 after modeling [2]: 1.01 ± 0.55; leukocytes, Day 5 after modeling [2]: 5.48 ± 4.39; effect in increasing platelets (in words) [3]: effect in increasing platelets is obvious on day 1 and day 5; platelets, Day 1 after modelng [3]: 456.88 ± 77.20; platelets, Day 5 after modeling [3]: 390.86 ± 203.71**★★; difference in increasing platelets compared with G-22 (in words) [3]: significant difference on day 5 compared with G-22 |
| ursolic acid-28-O-(α-L-arabopyranosyl) ester [Sample G-5] | 20.1 |  |
| CC1(C)CCC2(C(=O)OC3OC(COC4OC(CO)C(O)C(O)C4O)C(O)C(O)C3O)CCC3(C)C(=CCC4C5(C)CCC(O)C(C)(C)C5CCC43C)C2C1 (stereo not drawn) [Sample G-18, oleanolic acid-28-O-(β-gentiobiosyl) ester] | 19.0 |  |
| 3-O-(β-D-glucopyranosyl) oleanolic acid [Sample G-13] | 21.6 |  |
| CC1(C)CC[C@]2(C(=O)O)CC[C@]3(C)C(=CC[C@@H]4[C@@]5(C)CC[C@H](O[C@@H]6OC[C@@H](O)[C@H](O)[C@H]6O)C(C)(C)[C@@H]5CC[C@]43C)[C@@H]2C1 [Sample G-15, 3-O-(β-D-xylopyranosyl) oleanolic acid] | 20.6 |  |
| CC1(C)CC[C@]2(C(=O)O)CC[C@]3(C)C(=CC[C@@H]4[C@@]5(C)CC[C@H](O[C@@H]6O[C@H](C(=O)O)[C@@H](O)[C@H](O)[C@H]6O)C(C)(C)[C@@H]5CC[C@]43C)[C@@H]2C1 [Sample G-19, 3-O-(β-D-glucuronopyranosyl) oleanolic acid] | 20.9 |  |
| CC1(C)CC[C@]2(C(=O)O[C@@H]3O[C@H](CO)[C@@H](O)[C@H](O)[C@H]3O)CC[C@]3(C)C(=CC[C@@H]4[C@@]5(C)CC[C@H](O)C(C)(C)[C@@H]5CC[C@]43C)[C@@H]2C1 [Sample G-17, oleanolic acid-28-O-(β-D-glucopyranosyl) ester] | 20.6 |  |
| CC1(C)CC[C@]2(C(=O)O[C@@H]3OC[C@H](O)[C@H](O)[C@H]3O)CC[C@]3(C)C(=CC[C@@H]4[C@@]5(C)CC[C@H](O[C@@H]6OC[C@H](O)[C@H](O)[C@H]6O)C(C)(C)[C@@H]5CC[C@]43C)[C@@H]2C1 [Sample G-11, 3-O-(α-L-arabopyranosyl) oleanolic acid-28-O-(α-L-arabopyranosyl) ester] | 26.8 | effect in increasing leukocytes (in words) [2]: obvious effect in increasing leukocytes at day 1 after modeling; leukocytes, Day 1 after modeling [2]: 0.94 ± 0.77; leukocytes, Day 5 after modeling [2]: 7.55 ± 4.28; effect in increasing platelets (in words) [3]: effect in increasing platelets is obvious on day 1 and day 5; platelets, Day 1 after modelng [3]: 465.00 ± 99.28; platelets, Day 5 after modeling [3]: 385.73 ± 198.30**★; difference in increasing platelets compared with G-22 (in words) [3]: significant difference on day 5 compared with G-22 |
| C[C@H]1[C@H](C)CC[C@]2(C(=O)O)CC[C@]3(C)C(=CC[C@@H]4[C@@]5(C)CC[C@H](O[C@@H]6O[C@@H](C)[C@H](O)[C@@H](O)[C@H]6O)C(C)(C)[C@@H]5CC[C@]43C)[C@H]12 [Sample G-9, 3-O-(α-L-rhamnopyranosyl) ursolic acid] | 23.4 |  |
